Assay [1] relates to 22RV1 cells. Briefly: Hoechst viability assay, 22RV1 prostate carcinoma cells. The format is cell-based, human. Here is the method: (§1) Cells (in quadruplicate) at the specified density were suspended in 200 μL medium supplemented with 10% FCS seeded in 96-well plates for 24 hours, then exposed to the drugs for 72 hours. The viability of the cells was determined by Hoechst fluorescent assay as described by Nudelman et al., 2005. Leukemic cell viability after 72 hours of treatment was determined by an MTT (3-(4,5-dimethylthiazol-2-yl)-2,5-diphenyltetrazolium bromide) assay as described by Levovich et al., 2007.
(§2) IC50 values were determined by linear regression of the percentage of survival following drug titration.

Assay [2] has as its system HL-60 cells. Briefly: MTT viability assay, HL-60 leukemic cells. It is filed as cell-based, human. As to the method: as §1, §2
(Tetrazolium dyes change colour on reduction, which living cells bring about.)

The subject of assay [3] is MCF-7 cells. The assay is described as follows: Hoechst viability assay, MCF-7 breast carcinoma cells. It is filed as cell-based, human. As to the method:
as §1, §2

Assay [4] deals with U-251 cells. Briefly: Apoptosis/cell death by annexin V-FITC and propidium iodide FACS, U-251 cells. The format is cell-based.
Procedure: Cells were seeded in six-well plates (10^5 cells/well) for 24 hours and were then treated as specified, trypsinized, washed with PBS, double-stained with annexin V-FITC (fluorescein isothiocyanate) and propidium iodide, according to the manufacturer's instructions and subjected to flow cytometry analysis (FACScalibur cytometer, Becton Dickinson).
The subject of assay [5] is U-251 cells. Briefly: Mitochondrial membrane potential (JC-1 staining), U-251 cells. The format is cell-based, human. The conditions noted are these: 60 μM, 24 hour treatment.
Assay [6] has as its system U-251 cells. The assay is described as follows: Reactive oxygen species by DCF-DA FACS, U-251 cells. The format is cell-based, human. The conditions noted are these: 2 hour treatment. As to the method: ROS levels were determined by FACS analysis of U-251 cells treated with dichlorodihydrofluorescein diacetate (DCF-DA), which becomes fluorescent when oxidized.
Assay [7] relates to U-251 cells. The assay is described as follows: Cell cycle analysis (propidium iodide flow cytometry), U-251 cells. It is filed as cell-based, human. As to the method: Cells (4×10^5) were seeded in 35 mm culture dishes and after 24 hours were starved in medium without serum for an additional 24 hours, and then treated with the drug for an additional 24 hours. The cells were then trypsinized to a single cell suspension in PBS, washed, and resuspended in PBS at a concentration of 10^6 cells/mL. The cells were fixed with 70% ethanol for 30 minutes at 4° C., centrifuged and resuspended in 1 ml PBS containing 0.1% Tween 20 and 0.05% bovine serum albumin (BSA). RNase free of DNase was added, and the cell suspension (10^6 cells) was incubated at […] for 30 minutes. The cell suspension was then chilled on ice to a temperature in the range of 2 to 8° C. Propidium iodide (50 μg/mL) was added to the cell suspension, which was than kept in the dark. Red fluorescence (>630 nm) was analyzed on the flow cytometer.
On the technique in general: A flow cytometer gives signals particle by particle.

For assay [8], the system named is p21. The assay is described as follows: p21 Western blot, U-251 cells. The format is cell-based, human. Particulars: compared with Compound 12 and acyclovir. Here is the method:
Cell lysates or acid extracted histones were solubilized in a concentrated (×4) loading buffer (62.5 mM Tris-HCl, pH 6.8, 1% SDS, 10% glycerol v/v, 1% dithiothreitol (DTT) and 0.1 mg/ml bromophenol blue). Proteins (10-40 μg) were run on SDS-PAGE, transferred to a nitrocellulose membrane (Schleicher & Schuell, Germany) and probed with the primary antibodies, followed by incubation with a horseradish peroxidase (HRP)-goat anti-rabbit IgG or HRP-rabbit anti-mouse IgG as secondary antibodies. HRP bound to the secondary antibodies was visualized by the enhanced chemiluminescence method using the Western Blotting Luminol reagent (Santa Cruz, Calif., USA). The membrane was exposed for 5 minutes to Chemiluminescence BioMax light film (Kodak, USA) and the intensity of the bands was measured with a VersaDoc instrument with a Quantityl program (Bio-Rad, USA). The fold increase of each specific protein was determined by the ratio of band intensities of treated and untreated cells, normalized to loading control (actin or total histone H3).
(A western blot detects proteins with antibodies after separation by electrophoresis.)

In assay [9] the test system is kinases which phosphorylate acyclovir. Briefly: Acyclovir phosphorylation (viral thymidine kinase activity) in 4T1 cell extracts. It is filed as cell-based, murine. The conditions noted are these: 4T1 cells, 24 hours, 40 μM. Here is the method:
The mammalian thymidine kinase (TK) has a narrow specificity and acts only on thymidine. […] The lysates obtained were kept at −70 ° C. until analyzed either spectroscopically or by RT-PCR. […] The ADP is converted to ATP by pyruvate kinase when it hydrolyzes phosphoenolpyruvate (PEP) to pyruvate. Lactate dehydrogenase then converts pyruvate to lactate and NADH to NAD^+. The decrease in fluorescence emitted by NADH (excitation/emission of 320/460 nm) during 10 cycles, each lasting 1 minute, were monitored using a FluoStar fluorometer. The reaction velocity was determined by the slope of the fluorescence vs. time.

The subject of assay [10] is 4T1 cells. Briefly: Hoechst viability assay, 4T1 breast carcinoma cells (Dox combination). The format is cell-based, murine. Particulars: Mus musculus, 72 hours, 3 experiments. Here is the method: as §1, §2
The combination index for drug interaction was calculated by Chou's Median Effect Analysis (MEA) [Chou, 2006]. The combination index (CI) was defined as CI=D1/(DM)1+D2/(DM)2, where D1 and D2 are the doses of drug 1 and drug 2, respectively, (DM)1 and (DM)2 are the doses of drug 1 and drug 2 and their mixture (in a specified ratio) required to produce a median effect, e.g., IC50. CI<1, =1 or >1 indicates synergism, additive effect, and antagonism respectively.

In assay [11] the test system is 3LLD122 Lewis lung carcinoma. Briefly: Metastatic Lewis lung carcinoma (3LL) model. The format is in vivo, mice. The conditions noted are these: Compound 6 30 mg/kg, Compound 7 25 mg/kg, per os thrice per week, 21 days; p<0.02 vs acyclovir. As to the method: Female C57/BL mice, 7-10 weeks old, were acclimated for ten days. All in vivo experiments were conducted according to the NIH Laboratory Animal Care Guidelines and in accordance with the guidelines and approval of the Tel Aviv University Committee for Animal Experimentation.
The subclone 3LLD122 of 3LL used in the study was selected for its aggressive and invasive nature. […] The animals were sacrificed after 21 days of treatment, their lungs were weighed, stained with Bouin's fixative and the metastatic lesions were scored double-blindly.

Consider `CCCC(CCC)C(=O)Nc1nc2c(ncn2COCCOC(=O)C(CCC)CCC)c(=O)[nH]1` [Compound 6, N-valproyl-9-(2-valproyloxy)ethoxymethylguanine], for which the “activity relative to acyclovir” value in assay [1] is recorded as > 100 fold. Moreover, the IC50 (usually the point on the concentration scale where inhibition reaches its midpoint) in assay [1] (Homo sapiens, 72 hours, Hoechst, read-out: IC50) was determined as 23.2 ± 1.9 µM; in assay [10], 33.7 µM. Also, the “IC50 fold lower than that of VA” value in [2] is on record as “over 20 fold”; in assay [3] (MCF-7 cells, Hoechst), “over 20 fold”. For the same compound, the “IC50 fold lower than that of the mixture of VA and acyclovir” value is listed as “over 50 fold” in assay [2] (acyclovir:VA 1:2) and “over 50 fold” in [3] (MCF-7 cells, Hoechst, acyclovir:VA 1:2). For the same compound, the “effect of N-acetylcysteine (NAC) on the activity of the compound” value in assay [3] (400 μM NAC, FIG. 3b) is “did not reduce the activity”. In addition, in assay [4] (Homo sapiens, U-251 glioblastoma cells, 50 μM, 24 hours (untreated 9%)), the mortality (usually the share of the test organisms that died) at 50 µM came out at 29%. Further, the “percentage of apoptotic cells” value in [4] (U-251 cells, 24 hours) was “increased the percentage of apoptotic cells in a dose dependent manner”. In addition, the mitochondrial membrane potential entry in [5] is “increased the number of mitochondria with reduced membrane potentials”. Moreover, the “level of oxidation in cells (ROS)” value in [6] is reported as “considerably increased the level of oxidation in cells”. The “Percentage of cells in G0-G1 stage” value in assay [7] (25 μM, 24 hours) was 48.5%; in assay [7] (50 μM, 24 hours), 77.1%. Also, the “Percentage of cells in G2-M stage” value in [7] (25 μM, 24 hours) turned out to be 33.9%; in [7] (50 μM, 24 hours) it was 13.3%. In addition, the “Percentage of cells in S stage” value is 17.5% in assay [7] (25 μM, 24 hours) and 9.5% in assay [7] (50 μM, 24 hours). Moreover, the “cell-cycle arresting concentration, fold lower than acyclovir and valproic acid” value in assay [7] (25-50 μM vs 1 mM) is reported as “at least 20 fold”. Besides, the “phase of cell-cycle arrest” value in assay [7] (25-50 μM, 24 hours) is given as “G0-G1 phase”. Further, the “expression of p21” value in [8] is “induces expression of the cyclin dependent kinase inhibitor p21 more quickly and to a greater extent”. The “rate of acyclovir phosphorylation (kinase activity)” value in assay [9] was “increased the rate of acyclovir phosphorylation in a significant and reproducible manner”. Also, in [11], the “number of lung macro-lesions (anti-metastatic activity)” value was “significant anti-metastatic activity”.

(Values after patent US9334272B2, “Derivatives of purinic and pyrimidinic antiviral agents and use thereof as potent anticancer agents” (Ramot at Tel-Aviv University Ltd., priority 2007, dated 2016).)
